{"source": "patent US4207325A", "about": "“4-Substituted pyrazoles” (Bayer Aktiengesellschaft, priority 1975, dated 1980)", "system": "venous thrombs (left jugular vein of rats)", "assay": "antithrombotic action in rats: thromb formation in the supercooled left jugular vein, thromb isolated and weighed 4 hours later", "format": "in vivo", "details": "10 mg/kg, administered orally", "experimental": "The left jugular vein of rats weighing 170 to 180 g was exposed under ether narcosis and supercooled to -12° C. for 2 minutes to stimulate thromb formation. The thromb was isolated from the vein 4 hours later, and was weighed. The test animals were given the test preparation in tragacanth mucilage immediately before supercooling the wall of the blood vessel. As a result, the protective antithrombotic activity was tested in the first 4 hours after stimulating thromb formation.", "data": [{"smiles": "Cc1nn(C(C)c2ccc(Cl)c(Cl)c2)c(OC(=O)c2ccc(F)cc2)c1-c1ccccc1", "note": "(stereo not drawn) [Example 1, 5-(4-Fluorobenzoyloxy)-3-methyl-phenyl-1-(α-methyl-3,4-dichlorobenzyl)-pyrazole]", "values": [{"measurement": "Inhibition in % (reduction of thromb size)", "setting": "4 hour period of action, vs control without active compound", "result": 56, "unit": "%"}, {"measurement": "Thromb size, mean value", "setting": "4 hours, 12 experiments, control 115 ± 12 (14 experiments)", "result": "51 ± 10", "unit": "µg"}]}]}
